Experiments:
XeIF4E1a [1] = biological target: T1, XeIF4E1a (Xenopus laevis, UniProt P48597); experiment: time-synchronized fluorescence titration of cap analogue binding; settings: for Kas + glycerol XeIF4E1a / Kas − glycerol XeIF4E1a: equilibrium association constant; for Kas − glycerol XeIF4E1a: buffer without glycerol
T1 construct: made in house; host or cells: E. coli Rosetta2(DE3)
Source text: (§1) The time-synchronized fluorescence titration method, widely used to determine the affinity constants of cap–eIF4E complexes [[20,22–26]], measures the quenching of the intrinsic fluorescence of tryptophan residues due to cap binding (Fig. S2). Knowledge of the equilibrium association constant Kas enables the calculation of the free-energy changes involved in the interaction between eIF4E and ligand, according to the standard equation ΔG° = − RTlnKas.
(§2) For human eIF4E1a and eIF4E1b and also for Xenopus eIF4E1a and its mutated forms, measurements were carried out using 0.1 μM protein in 50 mM Hepes/KOH (pH 7.2), 134.5 mM KCl, 0.5 mM EDTA and 1 mM DTT. For Xenopus eIF4E1b(ΔN27), the concentration was 0.2 μM and glycerol was added to the buffer to 10% (v/v) final concentration. […] Fluorescence of measured samples was excited at 280 nm (2.5 nm bandwidth) and detected at 337 nm or 330 nm (4 nm bandwidth), thus reducing the signal originated from the free cap analogues. Measurements were carried out on a LS-55 spectrofluorometer (Perkin Elmer Co.) using freshly prepared proteins, and the fluorescence intensities were corrected for sample dilution and the inner filter effect.
(§3) Equilibrium association constants (Kas) were determined by fitting the theoretical dependence of fluorescence intensity on the total concentration of the cap analogue to the experimental data points, according to the equation described previously (see Ref. [22] and Fig. S2c).
(§4) The final Kas was calculated as a weighted average of 2–6 independent titrations with the weights taken as the reciprocal of the numerical standard deviation squared. Numerical, nonlinear least-squares regression analysis was performed using Origin 6.0 (Microcal Software Inc.). Obtained association constants were used to determine the Gibbs free energy according to the standard equation ΔG° = − RTlnKas.

heIF4E1a = biological target: T2, heIF4E1a (Homo sapiens, UniProt P06730); experiment: as above; settings: for Kas − glycerol heIF4E1a: equilibrium association constant, buffer without glycerol
T2 construct: made in house; host or cells: E. coli Rosetta2(DE3)
Source text: as §1, §2, §3, §4

heIF4E1b [2] = biological target: T3, heIF4E1b (Homo sapiens, UniProt A6NMX2); experiment: as above; settings: equilibrium association constant; buffer without glycerol
T3 construct: made in house; host or cells: E. coli Rosetta2(DE3)
T3 sequence (A6NMX2 1-242): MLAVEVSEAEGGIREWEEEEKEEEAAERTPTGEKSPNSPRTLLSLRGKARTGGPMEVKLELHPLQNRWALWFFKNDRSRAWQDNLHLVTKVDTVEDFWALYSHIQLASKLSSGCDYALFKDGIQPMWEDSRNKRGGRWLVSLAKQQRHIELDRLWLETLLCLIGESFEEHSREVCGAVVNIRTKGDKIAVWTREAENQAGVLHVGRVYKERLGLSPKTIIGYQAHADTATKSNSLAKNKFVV
Source text: as §1, §2, §3, §4

heIF4E1b [3] = experiment: as above; set-up: species or system human; settings: without glycerol
Source text: as §1, §2, §3, §4

XeIF4E1a [4] = experiment: as above; set-up: species or system Xenopus laevis; settings: without glycerol
Source text: as §1, §2, §3, §4

XeIF4E1bΔN27 = experiment: as above; set-up: species or system Xenopus laevis; settings: 10% glycerol; for Kas + glycerol XeIF4E1bΔN27: equilibrium association constant
Source text: as §1, §2, §3, §4

X4E1a1 (E101S) = biological target: T4, X4E1a1 (E101S) (Xenopus laevis, UniProt P48597, E101S); experiment: fluorescence titration, XeIF4E1a mutant; format: binding; settings: mutant (E101S) of XeIF4E1a
T4 construct: made in house; host or cells: E. coli Rosetta2(DE3)
Source text: (§5) We tested the effect on cap-binding activity of these positions in the fluorescence assay with six mutated recombinant versions of Xenopus eIF4E1a (Fig. S4). The amino acids were introduced in XeIF4E1a sequentially in the order: E101S/K102R/S195A/M82S/T206L/T207S (numbering of the XeIF4E1a sequence is shifted backward by 4 amino acids relative to XeIF4E1b). […] The biggest contribution to the weaker cap binding of XeIF4E1a, in each case about 20%, resulted from changing Glu101 to Ser and Thr206 to Leu coupled with Thr207 to Ser, with the remaining mutations having only minor effects. […] Glu101 is a solvent-accessible amino acid and is proximal to Trp98 in the S3-S4 loop. […] Attenuation of the cap-binding affinity of XeIF4E1a resulting from mutating Thr206 and Thr207 is consistent with our results mentioned above showing significant influence of C-terminal loop residues on binding phosphate and the second nucleotide.
(§6) For human eIF4E1a and eIF4E1b and also for Xenopus eIF4E1a and its mutated forms, measurements were carried out using 0.1 μM protein in 50 mM Hepes/KOH (pH 7.2), 134.5 mM KCl, 0.5 mM EDTA and 1 mM DTT. For Xenopus eIF4E1b(ΔN27), the concentration was 0.2 μM and glycerol was added to the buffer to 10% (v/v) final concentration. […] The gradually increasing concentration of cap analogue quenches protein fluorescence without shifting the spectrum maximum, while at high concentrations, the fluorescence signal of free cap analogue dominates over the fluorescence from other solution components including free eIF4E and eIF4E in complex with cap (Fig. S2a). Fluorescence of measured samples was excited at 280 nm (2.5 nm bandwidth) and detected at 337 nm or 330 nm (4 nm bandwidth), thus reducing the signal originated from the free cap analogues. Measurements were carried out on a LS-55 spectrofluorometer (Perkin Elmer Co.) using freshly prepared proteins, and the fluorescence intensities were corrected for sample dilution and the inner filter effect.
(§7) Equilibrium association constants (Kas) were determined by fitting the theoretical dependence of fluorescence intensity on the total concentration of the cap analogue to the experimental data points, according to the equation described previously (see Ref. [22] and Fig. S2c). […] Along with Kas and the concentration of the active protein [P0^act], other parameters such as fL and ∆f = fPact − fPL are also gained from the fit, where fL represents the fluorescence efficiency of free cap analogue and ∆f represents the difference between the fluorescence efficiencies of the apo-protein and the complex (Fig. S2c).
as §4

X4E1a1’ (K102R) = biological target: T5, X4E1a1’ (K102R) (Xenopus laevis, UniProt P48597, K102R); experiment: fluorescence titration, XeIF4E1a mutant; format: binding; settings: mutant (K102R) of XeIF4E1a
T5 construct: made in house; host or cells: E. coli Rosetta2(DE3)
Source text: as §5, §6, §7, §4

X4E1a2 (E101S/K102R) = biological target: T6, X4E1a2 (E101S/K102R) (Xenopus laevis, UniProt P48597, E101S/K102R); experiment: fluorescence titration, XeIF4E1a mutant; format: binding; settings: mutant (E101S/K102R) of XeIF4E1a
T6 construct: made in house; host or cells: E. coli Rosetta2(DE3)
Source text: as §5, §6, §7, §4

[5] = biological target: T7, X4E1a3 (E101S/K102R/S195A) (Xenopus laevis, UniProt P48597, E101S/K102R/S195A); experiment: fluorescence titration, XeIF4E1a mutant; format: binding; settings: mutant (E101S/K102R/S195A) of XeIF4E1a
T7 construct: made in house; host or cells: E. coli Rosetta2(DE3)
Source text: as §5, §6, §7, §4

[6] = biological target: T8, X4E1a4 (E101S/K102R/S195A/M82S) (Xenopus laevis, UniProt P48597, E101S/K102R/M82S/S195A); experiment: fluorescence titration, XeIF4E1a mutant; format: binding; settings: mutant (E101S/K102R/S195A/M82S) of XeIF4E1a
T8 construct: made in house; host or cells: E. coli Rosetta2(DE3)
Source text: as §5, §6, §7, §4

[7] = biological target: T9, X4E1a6 (E101S/K102R/S195A/M82S/T206L/T207S) (Xenopus laevis, UniProt P48597, E101S/K102R/M82S/S195A/T206L/T207S); experiment: fluorescence titration, XeIF4E1a mutant; format: binding; settings: mutant (E101S/K102R/S195A/M82S/T206L/T207S) of XeIF4E1a
T9 construct: made in house; host or cells: E. coli Rosetta2(DE3)
Source text: as §5, §6, §7, §4

T1 sequence (P48597 whole entry): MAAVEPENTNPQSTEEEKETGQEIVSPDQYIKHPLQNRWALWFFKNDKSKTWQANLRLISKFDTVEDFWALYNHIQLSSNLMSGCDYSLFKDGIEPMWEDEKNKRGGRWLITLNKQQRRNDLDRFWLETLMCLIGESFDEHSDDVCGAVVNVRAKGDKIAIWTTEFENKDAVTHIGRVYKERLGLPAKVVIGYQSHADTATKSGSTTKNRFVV
T2 sequence (P06730 whole entry): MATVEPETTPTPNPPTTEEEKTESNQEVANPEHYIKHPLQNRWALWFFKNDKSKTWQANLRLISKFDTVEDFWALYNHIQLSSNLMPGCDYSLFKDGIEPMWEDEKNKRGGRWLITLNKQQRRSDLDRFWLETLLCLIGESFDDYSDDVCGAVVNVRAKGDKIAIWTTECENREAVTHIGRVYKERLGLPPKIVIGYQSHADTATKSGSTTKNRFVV
T4 sequence (P48597 whole entry E101S): as the sequence (P48597 whole entry) above, with E101S counted along it
T5 sequence (P48597 whole entry K102R): as the sequence (P48597 whole entry) above, with K102R counted along it
T9 sequence (P48597 whole entry M82S/E101S/K102R/S195A/T206L/T207S): as the sequence (P48597 whole entry) above, with M82S, E101S, K102R, S195A, T206L, T207S counted along it
T6 sequence (P48597 whole entry E101S/K102R): as the sequence (P48597 whole entry) above, with E101S, K102R counted along it
T7 sequence (P48597 whole entry E101S/K102R/S195A): as the sequence (P48597 whole entry) above, with E101S, K102R, S195A counted along it
T8 sequence (P48597 whole entry M82S/E101S/K102R/S195A): as the sequence (P48597 whole entry) above, with M82S, E101S, K102R, S195A counted along it

| ΔΔG^o + glycerol XeIF4E1a (XeIF4E1a [1]; change relative to m^7Gp3G, 10% glycerol) [kcal/mol] | Kas + glycerol XeIF4E1a (XeIF4E1a [1]; 10% glycerol) [μM^− 1] | ΔΔG^o − glycerol heIF4E1a (heIF4E1a; change relative to m^7Gp3G, without glycerol) [kcal/mol] | Kas − glycerol heIF4E1a (heIF4E1a) [μM^− 1] | Kas − glycerol heIF4E1b (heIF4E1b [2]) [μM^− 1] | Ratio Kas (h4E1a) to Kas (h4E1b) (heIF4E1b [3]) | Kas − glycerol XeIF4E1a (XeIF4E1a [1]) [μM^− 1] | Ratio Kas (h4E1a) to Kas (X4E1a) (XeIF4E1a [4]) | Ratio Kas (X4E1a) to Kas (X4E1bΔN27) (XeIF4E1bΔN27) | Kas + glycerol XeIF4E1bΔN27 (XeIF4E1bΔN27) [μM^− 1] | Kas X4E1a1 (X4E1a1 (E101S)) [µM⁻¹] | Kas X4E1a1’ (X4E1a1’ (K102R)) [µM⁻¹] | Kas X4E1a2 (X4E1a2 (E101S/K102R)) [µM⁻¹] | Kas X4E1a3 [5] [µM⁻¹] | Kas X4E1a4 [6] [µM⁻¹] | Kas X4E1a6 [7] [µM⁻¹] | SMILES |
| --- | --- | --- | --- | --- | --- | --- | --- | --- | --- | --- | --- | --- | --- | --- | --- | --- |
| 0.026 ± 0.018 | 2.189 ± 0.026 | 0.128 ± 0.041 | 4.77 ± 0.13 | 3.568 ± 0.071 | 1.34 | – | – | – | – | – | – | – | – | – | – | CO[C@@H]1[C@H](O)[C@@H](COP(=O)(O)OP(=O)(O)OP(=O)(O)OC[C@H]2O[C@@H](n3c[n+](C)c4c(=O)[nH]c(N)nc43)[C@H](O)[C@@H]2O)O[C@H]1n1cnc2c(=O)[nH]c(N)nc21 [m^7Gpppm^2′-OG] |
| – | 151.1 ± 8.6 | – | 419 ± 23 | 89.6 ± 4.0 | 4.68 | 268 ± 10 | 1.57 | 3.51 | 43.0 ± 2.0 | 218 ± 39 | 232.5 ± 8.3 | 202.5 ± 6.7 | 170 ± 24 | 206 ± 12 | 143 ± 8 | Cn1c[n+]([C@@H]2O[C@H](COP(=O)(O)OP(=O)(O)OP(=O)(O)OP(=O)(O)O)[C@@H](O)[C@H]2O)c2nc(N)[nH]c(=O)c21 [m^7Gp4] |
| – | 230 ± 31 | – | 547 ± 31 | 146.6 ± 9.9 | 3.73 | 378 ± 44 | 1.44 | 3.50 | 65.6 ± 4.2 | 279 ± 34 | 382 ± 16 | 280 ± 11 | – | – | 190 ± 6 | Cn1c[n+]([C@@H]2O[C@H](COP(=O)(O)OP(=O)(O)OP(=O)(O)OP(=O)(O)OP(=O)(O)O)[C@@H](O)[C@H]2O)c2nc(N)[nH]c(=O)c21 [m^7Gp5] |

— PMC4306533, “Distinct Features of Cap Binding by eIF4E1b Proteins” (Journal of Molecular Biology, 2015)
